# Measured values: ChEMBL document CHEMBL4482312, “HTS Assay for Identifying Small Molecule Inhibitors of RAD52 and Uses of Identified Small Molecule Inhibitors for Treatment and Prevention of BRCA-Deficient Malignancies” (2018)
# Calls of active or inactive are those of the source. No cut-off for these calls is given here.
# Tests used:
# [1] = molecular target: T1, DNA repair protein RAD52 homolog (Homo sapiens, UniProt P43351); assay: Inhibition of RAD52 (unknown origin) assessed as reduction in RAD52-ssDNA interaction using Cy3-dT30-Cy5 ssDNA by FRET assay
# T1 sequence (P43351 whole entry): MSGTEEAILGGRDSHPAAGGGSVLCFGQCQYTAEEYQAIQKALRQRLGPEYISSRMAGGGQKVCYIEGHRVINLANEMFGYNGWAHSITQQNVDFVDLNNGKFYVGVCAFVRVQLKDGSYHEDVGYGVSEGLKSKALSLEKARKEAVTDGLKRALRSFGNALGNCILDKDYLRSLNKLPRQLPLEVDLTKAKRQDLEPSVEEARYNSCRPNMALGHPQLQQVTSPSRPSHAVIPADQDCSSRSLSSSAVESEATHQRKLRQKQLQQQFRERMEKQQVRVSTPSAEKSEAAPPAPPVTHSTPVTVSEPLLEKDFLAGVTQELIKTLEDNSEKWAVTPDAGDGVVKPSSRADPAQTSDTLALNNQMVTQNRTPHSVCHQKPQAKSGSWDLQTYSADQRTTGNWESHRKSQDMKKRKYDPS
# [2] = Solubility in 30 mM Tris-acetate buffer pH 7.5 in presence of 1 mM DTT at 10 uM; assay type: physicochemical; conditions: pH 7.5, 10 µM
# [3] = molecular target: T1, DNA repair protein RAD52 homolog; assay: Inhibition of RAD52 (unknown origin) assessed as effect on RAD52-mediated annealing of complementary oligonucleotides using T-28 ssDNA substrate by FRET assay
# [4] = molecular target: T2, DNA repair protein RAD52 homolog (Homo sapiens) (UniProt P43351); assay: Inhibition of RAD52 in checkpoint deficient HU-treated in hTERT-immortalized wild-type human GM01604 fibroblasts assessed as inhibiting RAD52-MUS81-dependent DSBs at stalled replication forks in presence of […] by neutral comet assay
# T2 sequence (whole entry): T1 sequence (P43351 whole entry)
# Homo sapiens [5] = species: Homo sapiens; assay: Inhibition of RAD52 (unknown origin) interaction with RPA (unknown origin)
# [6] = molecular target: T2, DNA repair protein RAD52 homolog (Homo sapiens); assay: Inhibition of RAD52 in checkpoint deficient HU-treated in hTERT-immortalized wild-type human GM01604 fibroblasts assessed as decrease in MUS81/EME1/RAD52-dependent DSB formation by measuring mean tail moment at 500 nM in presence of […] by neutral comet assay
# [7] = molecular target: T2, DNA repair protein RAD52 homolog (Homo sapiens); assay: Inhibition of RAD52 in hTERT-immortalized wild-type human GM01604 fibroblasts with MUS81 knockdown assessed as potentiation of HU and UCN01-induced cell death by Live/Dead assay
# [8] = molecular target: T2, DNA repair protein RAD52 homolog (Homo sapiens); assay: Inhibition of RAD52 in hTERT-immortalized wild-type human GM01604 fibroblasts in presence of BRCA2 siRNA NA RAD52 siRNA assessed as potentiation of HU-induced cell death by Live/Dead assay relative to control
# [9] = molecular target: T2, DNA repair protein RAD52 homolog (Homo sapiens); assay: Binding affinity to RAD52 (unknown origin) at 20 uM by water-logsy NMR method
# Homo sapiens [10] = species: Homo sapiens; assay: Binding affinity to RPA (unknown origin) assessed as effect on RPA-ssDNA interaction at 20 uM by water-logsy NMR method
# [11] = molecular target: T2, DNA repair protein RAD52 homolog (Homo sapiens); assay: Inhibition of RAD52 in hTERT-immortalized wild-type human GM01604 fibroblasts with BRCA2 knockdown assessed as potentiation of HU and UCN01-induced cell death by Live/Dead assay
# [12] = molecular target: T2, DNA repair protein RAD52 homolog (Homo sapiens); assay: Induction of protein aggregation of RAD52 (unknown origin) by dynamic light scattering assay
# [13] = molecular target: T2, DNA repair protein RAD52 homolog (Homo sapiens); assay: Inhibition of RAD52 in hTERT-immortalized wild-type human GM01604 fibroblasts assessed as cell death at 1 uM relative to control; set-up: scale not given: the % may be the effect or the level left
# Homo sapiens [14] = species: Homo sapiens; assay: Induction of anaphase bridge accumulation in checkpoint deficient HU-treated in hTERT-immortalized wild-type human GM01604 cells assessed as decrease in MUS81/EME1/RAD52-dependent DSB formation by measuring mean tail moment in presence of […] by neutral comet assay; assay type: functional
# Homo sapiens [15] = species: Homo sapiens; assay: Binding affinity to RPA (unknown origin) at 20 uM by water-logsy NMR method
# [16] = molecular target: T2, DNA repair protein RAD52 homolog (Homo sapiens); assay: Inhibition of RAD52 in checkpoint deficient in hTERT-immortalized wild-type human GM01604 fibroblasts assessed as decrease in MUS81/EME1/RAD52-dependent DSB formation by measuring mean tail moment in presence of […] in presence of RAD52 siRNA by neutral comet assay
# [17] = molecular target: T2, DNA repair protein RAD52 homolog (Homo sapiens); assay: Inhibition of RAD52 in checkpoint deficient HU-treated in hTERT-immortalized wild-type human GM01604 fibroblasts assessed as decrease in MUS81/EME1/RAD52-dependent DSB formation by measuring mean tail moment in presence of […] by neutral comet assay
# [18] = molecular target: T2, DNA repair protein RAD52 homolog (Homo sapiens); assay: Effect on oligomeric ring of RAD52 (unknown origin) by dynamic light scattering assay
# [19] = molecular target: T2, DNA repair protein RAD52 homolog (Homo sapiens); assay: Inhibition of RAD52 (unknown origin) assessed as reduction in RAD52-ssDNA interaction using Cy3-dT30-Cy5 ssDNA in presence of 0.01% Triton-X100 by FRET assay
# [20] = Solubility in 30 mM Tris-acetate buffer pH 7.5 in presence of 1 mM DTT at 115 uM; assay type: physicochemical; conditions: pH 7.5, 115 µM
# Homo sapiens [21] = species: Homo sapiens; assay: Binding affinity to RPA (unknown origin) assessed as effect on RPA-ssDNA interaction by water-logsy NMR method
# Homo sapiens [22] = species: Homo sapiens; assay: Binding affinity to RPA (unknown origin) by water-logsy NMR method
# [23] = molecular target: T2, DNA repair protein RAD52 homolog (Homo sapiens); assay: Inhibition of RAD52 (unknown origin) assessed as reduction in RAD52-dsDNA interaction by FRET assay
# [24] = molecular target: T2, DNA repair protein RAD52 homolog (Homo sapiens); assay: Binding affinity to RAD52 (unknown origin) by water-logsy NMR method
# [25] = Solubility in DMSO at 25 mM; assay type: physicochemical; conditions: 25000 µM
# Homo sapiens [26] = species: Homo sapiens; assay: Binding affinity to RPA (unknown origin) assessed as effect on RPA-ssDNA interaction at 40 uM by water-logsy NMR method
# Homo sapiens [27] = species: Homo sapiens; assay: Binding affinity to RPA (unknown origin) at 40 uM by water-logsy NMR method
smiles,measurement,setting,value
CCOc1cc(C(Nc2cc(C)ccn2)c2ccc3ccc(C)nc3c2O)ccc1OC (stereo not drawn),IC50,[1],Nd(Insoluble)
same,solubility,[2],Insoluble
COc1cc(N)c(Cl)cc1C(=O)N[C@H]1CCN(CCCOc2ccc(F)cc2)C[C@H]1OC.O,IC50,[3],Not Active
Oc1cc(O)c2c(c1)O[C@H](c1cc(O)c(O)c(O)c1)[C@H](O)C2,inhibition,[4],Active
same,inhibition,Homo sapiens [5],inactive
same,inhibition,[6],Active
same,inhibition,[7],Active
same,inhibition,[8],Active
same,Activity,[9],Active
same,Activity,Homo sapiens [10],inactive
same,inhibition,[11],Active
same,Activity,[12],inactive
same,Activity,[13],40%
same,Activity,Homo sapiens [14],inactive
same,Activity,Homo sapiens [15],inactive
same,inhibition,[16],Active
same,inhibition,[17],Dose-dependent effect
same,Activity,[18],inactive
same,inhibition,[19],Active
O=c1c2ccccc2nc(CSc2[nH]cnc3ncnc2-3)n1-c1cccc(C(F)(F)F)c1,IC50,[1],Nd(Insoluble)
same,solubility,[20],Insoluble
CC(C)(O)C1Cc2cc3ccc(=O)oc3cc2O1 (stereo not drawn),IC50,[1],Not Active
NCCc1cc(O)c(O)cc1O [OXIDOPAMINE],IC50,[3],Not Active
O=C(O[C@@H]1O[C@@H]2COC(=O)c3cc(O)c(O)c(O)c3-c3c(cc(O)c(O)c3O)C(=O)O[C@H]([C@H]1O)[C@@H]2O)c1cc(O)c(O)c(O)c1,Activity,Homo sapiens [21],inactive
same,Activity,Homo sapiens [22],Active
same,inhibition,[23],inactive
same,Activity,[24],Active
CCOc1ccccc1NC(=O)c1c(NC(=O)Cc2ccc(OC)cc2)sc2c1CCC2,IC50,[1],Nd(Insoluble)
same,solubility,[25],Insoluble
CC1(C)C(=O)C=C[C@@]2(C)C1=C(O)C(=O)[C@]1(C)[C@@H]2CC[C@@]2(C)[C@H](c3ccoc3)C[C@H]3O[C@]321 [CEDRELONE],IC50,[3],Not Active
O=C(O[C@@H]1Cc2c(O)cc(O)cc2O[C@@H]1c1cc(O)c(O)c(O)c1)c1cc(O)c(O)c(O)c1,inhibition,[4],Active
same,inhibition,Homo sapiens [5],inactive
same,inhibition,[6],Active
same,Activity,[12],inactive
same,Activity,Homo sapiens [14],inactive
same,Activity,Homo sapiens [26],inactive
same,inhibition,[16],Active
same,inhibition,[17],Dose-dependent effect
same,Activity,[18],inactive
same,inhibition,[19],Active
same,Activity,Homo sapiens [27],Active
Oc1cc(O)c2c(c1)O[C@H](c1ccc(O)c(O)c1)[C@H](O)C2 [(-)-EPICATECHIN],IC50,[3],Not Active
CN(C)[C@@H]1C(O)=C(C(=O)NCN2CCCC2)C(=O)[C@@]2(O)C(O)=C3C(=O)c4c(O)cccc4[C@@](C)(O)[C@H]3C[C@@H]12 [ROLITETRACYCLINE],IC50,[3],Not Active
